Results: article PMC10458458, “Characterization of Anticancer Effects of the Analogs of DJ4, a Novel Selective Inhibitor of ROCK and MRCK Kinases” (Pharmaceuticals, 2023)

How the values were obtained:
Test in all cases: NCI-60 screen (SRB)
Assay type in all cases: cell-based, human
[1] = system: SW-620; details: SW-620 (Colon Cancer), 10 µM, 48 h; negative = cell death vs time zero
Excerpt: (§1) The selected active compounds were screened at NCI, as a part of In Vitro Cell Line Screening Project (IVCLSP), for their effect on cell growth in 60 different cancer cell lines. The 60 human cancer cell line panel included leukemia, melanoma, non-small cell lung cancer, colon, central nervous system (CNS), ovarian, renal, prostate, and breast cancer cell lines. The detailed procedure and applications of NCI-60 cell line screening can be found at https://dtp.cancer.gov/discovery_development/nci-60/default.htm (accessed on 9 January 2023). Briefly, cells were plated in 96-well plates and incubated for 24 h. One set of cells was fixed with trichloroacetic acid at time 0 h (Tz), and SRB (sulphorhodamine B) assays were performed to quantify the cells. The remaining set of cells were treated with 10 µM single concentration of each compound and incubated for 48 h (Te) after which the cells were fixed, and the SRB assays were performed. Data are presented as percent growth relative to the control as 100% according to the following calculations:
(§2) When Te >/= Tz. Growth(%)=Te−Tz/C−Tz∗100 and when Te < Tz. (1) Growth(%)=Te−Tz/Tz∗100
(§3) Values between 0–100 indicate cell growth, zero (0) indicates no cell growth, values < 0 indicate cell death.

[2] = system: NCI-H23; details: NCI-H23 (Non-Small Cell Lung Cancer), 10 µM, 48 h; negative = cell death vs time zero
Excerpt: as §1, §2, §3

[3] = system: SK-OV-3; details: SK-OV-3 (Ovarian Cancer), 10 µM, 48 h; negative = cell death vs time zero
Excerpt: as §1, §2, §3

[4] = system: MDA-MB-231; details: MDA-MB-231 (Breast Cancer), 10 µM, 48 h; negative = cell death vs time zero
Excerpt: as §1, §2, §3

[5] = system: 786-0; details: 786-0 (Renal Cancer), 10 µM, 48 h; negative = cell death vs time zero
Excerpt: as §1, §2, §3

[6] = system: UO-31; details: UO-31 (Renal Cancer), 10 µM, 48 h; negative = cell death vs time zero
Excerpt: as §1, §2, §3

[7] = system: SK-MEL-28; details: SK-MEL-28 (Melanoma), 10 µM, 48 h; negative = cell death vs time zero
Excerpt: as §1, §2, §3

[8] = system: M14; details: M14 (Melanoma), 10 µM, 48 h; negative = cell death vs time zero
Excerpt: as §1, §2, §3

[9] = system: EKVX; details: EKVX (Non-Small Cell Lung Cancer), 10 µM, 48 h; negative = cell death vs time zero
Excerpt: as §1, §2, §3

[10] = system: DU-145; details: DU-145 (Prostate Cancer), 10 µM, 48 h; negative = cell death vs time zero
Excerpt: as §1, §2, §3

[11] = system: OVCAR-8; details: OVCAR-8 (Ovarian Cancer), 10 µM, 48 h; negative = cell death vs time zero
Excerpt: as §1, §2, §3

[12] = system: HCT-116; details: HCT-116 (Colon Cancer), 10 µM, 48 h; negative = cell death vs time zero
Excerpt: as §1, §2, §3

[13] = system: CAKI-1; details: CAKI-1 (Renal Cancer), 10 µM, 48 h; negative = cell death vs time zero
Excerpt: as §1, §2, §3

[14] = system: SF-268; details: SF-268 (CNS Cancer), 10 µM, 48 h; negative = cell death vs time zero
Excerpt: as §1, §2, §3

[15] = system: ACHN; details: ACHN (Renal Cancer), 10 µM, 48 h; negative = cell death vs time zero
Excerpt: as §1, §2, §3

[16] = system: LOX IMVI; details: LOX IMVI (Melanoma), 10 µM, 48 h; negative = cell death vs time zero
Excerpt: as §1, §2, §3

[17] = system: TK-10; details: TK-10 (Renal Cancer), 10 µM, 48 h; negative = cell death vs time zero
Excerpt: as §1, §2, §3

[18] = system: IGROV1; details: IGROV1 (Ovarian Cancer), 10 µM, 48 h; negative = cell death vs time zero
Excerpt: as §1, §2, §3

[19] = system: HT29; details: HT29 (Colon Cancer), 10 µM, 48 h; negative = cell death vs time zero
Excerpt: as §1, §2, §3

[20] = system: NCI-H322M; details: NCI-H322M (Non-Small Cell Lung Cancer), 10 µM, 48 h; negative = cell death vs time zero
Excerpt: as §1, §2, §3

[21] = system: MDA-MB-435; details: MDA-MB-435 (Melanoma), 10 µM, 48 h; negative = cell death vs time zero
Excerpt: as §1, §2, §3

[22] = system: A549/ATCC; details: A549/ATCC (Non-Small Cell Lung Cancer), 10 µM, 48 h; negative = cell death vs time zero
Excerpt: as §1, §2, §3

[23] = system: HS 578T; details: HS 578T (Breast Cancer), 10 µM, 48 h; negative = cell death vs time zero
Excerpt: as §1, §2, §3

[24] = system: SK-MEL-2; details: SK-MEL-2 (Melanoma), 10 µM, 48 h; negative = cell death vs time zero
Excerpt: as §1, §2, §3

[25] = system: KM12; details: KM12 (Colon Cancer), 10 µM, 48 h; negative = cell death vs time zero
Excerpt: as §1, §2, §3

[26] = system: NCI-H522; details: NCI-H522 (Non-Small Cell Lung Cancer), 10 µM, 48 h; negative = cell death vs time zero
Excerpt: as §1, §2, §3

[27] = system: NCI-H460; details: NCI-H460 (Non-Small Cell Lung Cancer), 10 µM, 48 h; negative = cell death vs time zero
Excerpt: as §1, §2, §3

CC/N=C1\NC(=O)/C(=C\c2c[nH]c3ncccc23)S1 [DJE4]
percent cell growth [1]: 6.5% | percent cell growth [2]: −7.9% | percent cell growth [3]: −10.3% | percent cell growth [4]: 10.7% | percent cell growth [5]: 3.0% | percent cell growth [6]: 7.5% | percent cell growth [7]: −17.2% | percent cell growth [8]: 0.7% | percent cell growth [9]: 14.1% | percent cell growth [10]: 9.9% | percent cell growth [11]: 6.3% | percent cell growth [12]: 4.0% | percent cell growth [13]: 20.6% | percent cell growth [14]: −5.8% | percent cell growth [15]: 0.7% | percent cell growth [16]: 1.8% | percent cell growth [17]: −3.8% | percent cell growth [18]: 21.7% | percent cell growth [19]: 4.3% | percent cell growth [20]: 5.8% | percent cell growth [21]: −0.8% | percent cell growth [22]: 11.1% | percent cell growth [23]: −15.1% | percent cell growth [24]: −48.7% | percent cell growth [25]: 6.2% | percent cell growth [26]: −28.6% | percent cell growth [27]: 2.4%

O=C1N/C(=N\CCc2ccccc2)S/C1=C/c1c[nH]c2ncccc12 [DJ4]
percent cell growth [1]: 9.9% | percent cell growth [2]: 9.1% | percent cell growth [3]: 27.0% | percent cell growth [4]: 25.5% | percent cell growth [5]: 9.0% | percent cell growth [6]: 25.2% | percent cell growth [7]: 16.0% | percent cell growth [8]: 29.9% | percent cell growth [9]: 46.0% | percent cell growth [10]: 20.7% | percent cell growth [11]: 14.0% | percent cell growth [12]: 9.7% | percent cell growth [13]: 37.4% | percent cell growth [14]: 10.4% | percent cell growth [15]: 16.0% | percent cell growth [16]: 16.3% | percent cell growth [17]: 34.2% | percent cell growth [18]: 14.0% | percent cell growth [19]: 30.6% | percent cell growth [20]: 5.2% | percent cell growth [21]: 21.0% | percent cell growth [22]: 19.1% | percent cell growth [23]: 8.8% | percent cell growth [24]: 28.8% | percent cell growth [25]: 13.1% | percent cell growth [26]: 26.6% | percent cell growth [27]: 14.1%

Cl.O=C1NC(=NCCc2ccccc2)SC1=Cc1c[nH]c2ncccc12 (mixture of isomers) [DJ4-HCl]
percent cell growth [1]: 7.8% | percent cell growth [2]: 3.0% | percent cell growth [3]: 2.1% | percent cell growth [4]: 25.9% | percent cell growth [5]: 19.7% | percent cell growth [6]: 36.6% | percent cell growth [7]: 0.8% | percent cell growth [8]: 31.7% | percent cell growth [9]: 40.9% | percent cell growth [10]: 15.3% | percent cell growth [11]: 9.7% | percent cell growth [12]: 5.8% | percent cell growth [13]: 54.8% | percent cell growth [14]: 8.9% | percent cell growth [15]: −12.0% | percent cell growth [16]: 8.3% | percent cell growth [17]: 18.8% | percent cell growth [18]: 25.6% | percent cell growth [19]: 27.8% | percent cell growth [20]: 19.6% | percent cell growth [21]: 18.5% | percent cell growth [22]: 8.1% | percent cell growth [23]: 8.8% | percent cell growth [24]: −4.6% | percent cell growth [25]: 9.3% | percent cell growth [26]: 4.3% | percent cell growth [27]: 15.1%

C=CC/N=C1\NC(=O)/C(=C\c2c[nH]c3ncccc23)S1 [DJ-Allyl]
percent cell growth [1]: 7.4% | percent cell growth [2]: 6.8% | percent cell growth [3]: −7.0% | percent cell growth [4]: 19.8% | percent cell growth [5]: 4.4% | percent cell growth [6]: 3.1% | percent cell growth [7]: −2.4% | percent cell growth [8]: 24.5% | percent cell growth [9]: 30.5% | percent cell growth [10]: 12.7% | percent cell growth [11]: 10.7% | percent cell growth [12]: 6.3% | percent cell growth [13]: 30.2% | percent cell growth [14]: −3.3% | percent cell growth [15]: −1.2% | percent cell growth [16]: 0.6% | percent cell growth [17]: 1.7% | percent cell growth [18]: 17.0% | percent cell growth [19]: 26.4% | percent cell growth [20]: 10.2% | percent cell growth [21]: 21.1% | percent cell growth [22]: 13.2% | percent cell growth [23]: −15.0% | percent cell growth [24]: −8.4% | percent cell growth [25]: 7.9% | percent cell growth [26]: −5.3% | percent cell growth [27]: 2.2%
